Results published in patent US9045461B2, “Phenyl-heteroaryl derivatives and methods of use thereof” (TransTech Pharma, LLC, priority 2010, dated 2015).
pIC50: −log10 of the molar value. Where a name gives a salt, the structure may show the parent alone.

Key:
[1] = molecular target: T1, sRAGE binding to β-amyloid (Homo sapiens, UniProt Q15109); assay: RAGE binding assay (ELISA), β-amyloid as the RAGE ligand; details: compounds tested in hydrochloride salt form, concentration at which 50% signal has been inhibited
T1 construct: extracellular domain can be isolated by proteolysis of RAGE to generate soluble RAGE (sRAGE) comprised of the V and C domains
T1 sequence (Q15109 23-342 limits assumed): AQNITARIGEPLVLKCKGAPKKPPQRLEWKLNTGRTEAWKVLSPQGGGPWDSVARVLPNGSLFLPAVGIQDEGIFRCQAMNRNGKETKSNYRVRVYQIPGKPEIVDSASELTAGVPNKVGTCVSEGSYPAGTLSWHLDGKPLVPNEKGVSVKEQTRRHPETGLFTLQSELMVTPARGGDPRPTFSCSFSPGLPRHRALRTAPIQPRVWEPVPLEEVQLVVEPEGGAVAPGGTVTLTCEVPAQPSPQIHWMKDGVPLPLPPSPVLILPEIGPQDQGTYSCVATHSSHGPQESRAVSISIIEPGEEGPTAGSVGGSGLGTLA
Description: (§1) The following assay method may be used to identify compounds of Formula (I) or pharmaceutically acceptable salts thereof which are useful as inhibitors of binding of physiological RAGE ligands, such as S100b and β-amyloid, to RAGE.
(§2) S100b, β-amyloid, or CML (500 ng/100 μL/well) in 100 mM sodium bicarbonate/sodium carbonate buffer (pH 9.8) is loaded onto the wells of a NUNC Maxisorp flat bottom 96-well microtitre plate. The plate is incubated at 4° C. overnight. The wells are aspirated and treated with 50 mM imidazole buffer saline (pH 7.2) (with 5 mM CaCl2/MgCl2) containing 1% bovine serum albumin (BSA) (300 μL/well) for 1 h at RT. The wells are aspirated.
(§3) Test compounds are dissolved in nanopure water (concentration: 10-100 μM). DMSO may be used as co-solvent. 25 μL of test compound solution in 4% DMSO is added, along with 75 μL sRAGE (6 nM FAC) to each well and samples are incubated for 1 h at 37° C. The wells are washed several times with 155 mM NaCl pH 7.2 buffer saline and are soaked for several seconds between each wash.
(§4) Non-radioactive detection is performed by adding:
(§5) 10 μL Biotinylated goat F(ab′)2 Anti-mouse IgG. (8.0×10-4 mg/mL, FAC), 5 μL Alk-phos-Streptavidin (3×10-3 mg/mL FAC), 0.42 μL per 5 mL Monoclonal antibody for sRAGE (FAC 6.0×10-3 mg/mL) to 5 mL 50 mM imidazole buffer saline (pH 7.2) containing 0.2% bovine serum albumin and 5 mM CaCl2. The mixture is incubated for 30 minutes at RT.
(§6) 100 μL of complex is added to each well and incubation is allowed to proceed at rt for 1 h. Wells are washed several times with wash buffer and soaked several seconds between each wash. 100 μL 1 mg/mL (pNPP) in 1 M diethanolamine (pH adjusted to 9.8 with HCl) is added. Color is allowed to develop in the dark for 30 min to 1 h at rt. The reaction is quenched with 10 μL of stop solution (0.5-1.0 N NaOH in 50% ethanol) and the absorbance is measured spectrophotometrically with a microplate reader at 405 nm.
(§7) The IC50 (μM) value in the ELISA assay represents the concentration of compound at which 50% signal has been inhibited.

[2] = molecular target: T2, sRAGE binding to S100b (Homo sapiens, UniProt Q15109); assay: RAGE binding assay (ELISA), S100b as the RAGE ligand; details: compounds tested in hydrochloride salt form, concentration at which 50% signal has been inhibited
T2 construct: extracellular domain can be isolated by proteolysis of RAGE to generate soluble RAGE (sRAGE) comprised of the V and C domains
T2 sequence (Q15109 23-342 limits assumed): as above
Description: as §1, §2, §3, §4, §5, §6, §7

Structure (SMILES)	pIC50 [1]	pIC50 [2]
CCCCc1nnc(OC[C@H]2CN(C)CC[C@@H]2O)cc1-c1ccc(OC2CCCCC2)cc1 (racemic) [Example 47, (±)-trans-3-[6-Butyl-5-(4-cyclohexyloxy-phenyl)-pyridazin-3-yloxymethyl]-1-methyl-piperidin-4-ol dihydrochloride]	5.60	5.53
CN1CCC(Oc2cc(-c3ccc(OC4CCCCC4)cc3)c(C3CCC3)nn2)CC1 [Example 61, 3-cyclobutyl-4-(4-cyclohexyloxy-phenyl)-6-(1-methyl-piperidin-4-yloxy)-pyridazine dihydrochloride]	5.43	5.47
CCCCc1nnc(OC[C@@H]2CCCN3CCCC[C@H]23)cc1-c1ccc(OC2CCCCC2)cc1 [Example 28, (1R,9aR)-1-[6-Butyl-5-(4-cyclohexyloxy-phenyl)-pyridazin-3-yloxymethyl]-octahydroquinolizine dihydrochloride]	5.78	5.76
CCCCc1nnc(C(=O)NCC2CNCCO2)cc1-c1ccc(OC2CCCCC2)cc1 (centres unmarked) [Example 90, 6-Butyl-5-(4-cyclohexyloxy-phenyl)-pyridazine-3-carboxylic acid (morpholin-2-ylmethyl)-amide dihydrochloride]	5.75	5.81
CCCCc1nnc(C(=O)NCC2(F)CCN(C)CC2)cc1-c1ccc(OC2CCCCC2)cc1 [Example 109, 6-Butyl-5-(4-cyclohexyloxy-phenyl)-pyridazine-3-carboxylic acid (4-fluoro-1-methyl-piperidin-4-ylmethyl)-amide dihydrochloride]	5.23	5.23
CN1CCC(Oc2cc(-c3ccc(OCc4ccccc4)cc3)c(C(F)(F)F)nn2)CC1 [Example 13, 4-(4-Benzyloxy-phenyl)-6-(1-methyl-piperidin-4-yloxy)-3-trifluoromethyl-pyridazine dihydrochloride]	5.58	5.59
CCCCc1nnc(OC2CCN(C)CC2)cc1-c1ccc(OC2CCCCC2)c(N2CCCS2(=O)=O)c1 [Example 75, 3-Butyl-4-[4-cyclohexyloxy-3-(1,1-dioxo-1lambda*6*-isothiazolidin-2-yl)-phenyl]-6-(1-methyl-piperidin-4-yloxy)-pyridazine dihydrochloride]	5.55	5.66
CCCCc1nnc(C(=O)N[C@H]2CN3CCC2CC3)cc1-c1ccc(OCc2ccccc2)cc1 [Example 83, 5-(4-Benzyloxy-phenyl)-6-butyl-pyridazine-3-carboxylic acid (R)-(1-aza-bicyclo[2.2.2]oct-3-yl)-amide dihydrochloride]	5.95	5.93
CCCCc1nnc(O[C@H]2CCN(C)C[C@@H]2F)cc1-c1ccc(OC2CCCCC2)cc1 (racemic) [Example 41, (±)-trans-3-Butyl-4-(4-cyclohexyloxy-phenyl)-6-(3-fluoro-1-methylpiperidin-4-yloxy)-pyridazine dihydrochloride]	5.39	5.66
CCCCc1nnc(OC2CCN(CCOC)CC2)cc1-c1ccc(OC2CCCCC2)cc1 [Example 23, 3-Butyl-4-(4-cyclohexyloxy-phenyl)-6-[1-(2-methoxy-ethyl)-piperidin-4-yloxy]-pyridazine dihydrochloride]	5.95	6.11
CCCCc1nnc(C(=O)NCC2CN(C)CCC2OC)cc1-c1ccc(OC2CCCCC2)cc1 (centres unmarked) [Example 101, 6-Butyl-5-(4-cyclohexyloxy-phenyl)-pyridazine-3-carboxylic acid (4-methoxy-1-methyl-piperidin-3-ylmethyl)-amide dihydrochloride]	6.03	6.18
CCCCc1nnc(OC2CCN(C)CC2)cc1-c1ccc(OC2CCCCC2)c(-c2nnnn2C)c1 [Example 70, 3-Butyl-4-[4-cyclohexyloxy-3-(1-methyl-1H-tetrazol-5-yl)-phenyl]-6-(1-methyl-piperidin-4-yloxy)-pyridazine dihydrochloride]	5.53	5.66
CCCCc1nnc(OC2CCN(C)CC2)cc1-c1ccc(OCC2CCC(C(=O)N(C)C)CC2)cc1 (centres unmarked) [Example 56, 4-{4-[3-butyl-6-(1-methyl-piperidin-4-yloxy)-pyridazin-4-yl]-phenoxymethyl}-cyclohexanecarboxylic acid dimethylamide dihydrochloride]	5.61	5.74
CCCCc1nnc(OC2CCN(C)CC2)cc1-c1ccc(OC2CCCCC2)c(NC(=O)NC(C)(C)C)c1 [Example 77, 1-tert-Butyl-3-{5-[3-butyl-6-(1-methyl-piperidin-4-yloxy)-pyridazin-4-yl]-2-cyclohexyloxy-phenyl}-urea dihydrochloride]	6.18	6.17
CCCCc1nnc(C(=O)N[C@@H]2CCN(C)C[C@@H]2OC)cc1-c1ccc(OC2CCCCC2)cc1 (stereo in doubt) [Example 107, 6-Butyl-5-(4-cyclohexyloxy-phenyl)-pyridazine-3-carboxylic acid (3-methoxy-1-methyl-piperidin-4-yl)-amide dihydrochloride]	6.25	6.01
CCCCc1nnc(C(=O)N(C)C2CCN(C)CC2)cc1-c1ccc(OC2CCCCC2)cc1 [Example 114, 6-Butyl-5-(4-cyclohexyloxy-phenyl)-pyridazine-3-carboxylic acid methyl-(1-methyl-piperidin-4-yl)-amide dihydrochloride]	6.01	5.97
CCCCc1nnc(O[C@H]2C[C@H]3CC[C@@H](C2)N3C)cc1-c1ccc(OC2CCCCC2)cc1 [Example 27, endo-3-[6-Butyl-5-(4-cyclohexyloxy-phenyl)-pyridazin-3-yloxy]-8-methyl-8-aza-bicyclo[3.2.1]octane dihydrochloride]	5.60	5.57
CCCCc1nnc(OC2CCN(C)CC2)cc1-c1ccc(OCC2CCN(C(C)=O)CC2)cc1 [Example 55, 1-(4-{4-[3-butyl-6-(1-methyl-piperidin-4-yloxy)-pyridazin-4-yl]-phenoxymethyl}-piperidin-1-yl)-ethanone dihydrochloride]	5.04	5.43
CCCCc1nnc(C(=O)NCC2=CCN(C)CC2)cc1-c1ccc(OC2CCCCC2)cc1 [Example 108, 6-Butyl-5-(4-cyclohexyloxy-phenyl)-pyridazine-3-carboxylic acid (1-methyl-1,2,3,6-tetrahydro-pyridin-4-ylmethyl)-amide dihydrochloride]	6.07	5.93
CCCCc1nnc(C(=O)NC[C@H]2CCN(C)C[C@H]2F)cc1-c1ccc(OC2CCCCC2)cc1 (racemic) [Example 110, (±)-cis-6-Butyl-5-(4-cyclohexyloxy-phenyl)-pyridazine-3-carboxylic acid (3-fluoro-1-methyl-piperidin-4-ylmethyl)-amide dihydrochloride]	5.87	5.98
CCCCc1nnc(C(=O)NC[C@@H](O)CN(C)C)cc1-c1ccc(OC2CCCCC2)cc1 [Example 88, 6-Butyl-5-(4-cyclohexyloxy-phenyl)-pyridazine-3-carboxylic acid ((R)-3-dimethylamino-2-hydroxy-propyl)-amide dihydrochloride]	5.61	5.69
CCCCc1nnc(OC[C@H]2CCN(C)C[C@@H]2O)cc1-c1ccc(OC2CCCCC2)cc1 (racemic) [Example 25, (±)-trans-4-[6-Butyl-5-(4-cyclohexyloxy-phenyl)-pyridazin-3-yloxymethyl]-1-methyl-piperidin-3-ol dihydrochloride]	5.81	5.86
CCCCc1nnc(C(=O)NCC2(O)CCN(C)CC2)cc1-c1ccc(OC2CCCCC2)cc1 [Example 94, 6-Butyl-5-(4-cyclohexyloxy-phenyl)-pyridazine-3-carboxylic acid (4-hydroxy-1-methyl-piperidin-4-ylmethyl)-amide dihydrochloride]	5.71	5.59
CCCCc1nnc(O[C@H]2CC3C[C@@H](O)C(C2)N3C)cc1-c1ccc(OC2CCCCC2)cc1 (stereo partly drawn) [Example 31, (3S,6R)-3-[6-Butyl-5-(4-cyclohexyloxy-phenyl)-pyridazin-3-yloxy]-8-methyl-8-aza-bicyclo[3.2.1]octan-6-ol dihydrochloride]	5.93	6.05
CCCCc1nnc(OC2CCN(C)CC2)cc1-c1ccc(OC2CCCCC2)c(-c2cnn(CCOC)c2)c1 [Example 78, 3-Butyl-4-{4-cyclohexyloxy-3-[1-(2-methoxy-ethyl)-1H-pyrazol-4-yl]-phenyl}-6-(1-methyl-piperidin-4-yloxy)-pyridazine dihydrochloride]	5.94	6.30
